The structures appear in SMILES notation. Active and inactive are the calls of the source. No rule for the calls is given here.

The values below come from PubChem BioAssay AID1259407 (Chemical Carcinogenesis Research Information System (CCRIS), 2018).

This data set relates to CCRIS mutagenicity, Ames/micronucleus/aberration tests. As to the kind of experiment: CCRIS mutagenicity studies.
The mark [1] stands for this setting: Test System: AMES SALMONELLA TYPHIMURIUM, Strain/Indicator: TA100, Metabolic Activation: NONE, Method: PREINCUBATION
[2] abbreviates: Test System: AMES SALMONELLA TYPHIMURIUM, Strain/Indicator: TA1535, Metabolic Activation: NONE, Method: PREINCUBATION
Where [3] appears, read: Test System: AMES SALMONELLA TYPHIMURIUM, Strain/Indicator: TA98, Metabolic Activation: NONE, Method: PREINCUBATION

Take `O=C(O)CBr`: the mutagenic call was “active; positive (structural changes)” (End Point: IN VITRO CHROMOSOMAL ABERRATIONS, Test System: CHL CELLS, Metabolic Activation: NONE); “active; positive (structural changes)” (End Point: IN VITRO CHROMOSOMAL ABERRATIONS, Test System: CHL CELLS, Metabolic Activation: RAT, LIVER, S-9, SODIUM PHENOBARBITAL AND 5,6-BENZOFLAVONE); “inactive; negative” (Test System: AMES SALMONELLA TYPHIMURIUM, Strain/Indicator: RSJ100, Metabolic Activation: NONE, Method: PREINCUBATION); “inactive; negative” (Test System: AMES SALMONELLA TYPHIMURIUM, Strain/Indicator: RSJ100, Metabolic Activation: RAT LIVER S-9, AROCLOR 1254, Method: PREINCUBATION); “active; positive” (Test System: AMES SALMONELLA TYPHIMURIUM, Strain/Indicator: TA98, Metabolic Activation: RAT LIVER S-9, AROCLOR 1254, Method: PREINCUBATION); “inactive; negative” (Test System: AMES SALMONELLA TYPHIMURIUM, Strain/Indicator: TA98, Metabolic Activation: RAT LIVER S-9, PHENOBARBITAL AND BETA-NAPHTHOFLAVONE, Method: PREINCUBATION). The mutagenic call reads like this: (Test System: AMES SALMONELLA TYPHIMURIUM, Strain/Indicator: TA100, Metabolic Activation: NONE, Method: FLUCTUATION TEST) “inactive; negative”; under setting [1], “active; positive”; (Test System: AMES SALMONELLA TYPHIMURIUM, Strain/Indicator: TA100, Metabolic Activation: RAT LIVER S-9, AROCLOR 1254, Method: PREINCUBATION) “active; positive”; (Test System: AMES SALMONELLA TYPHIMURIUM, Strain/Indicator: TA100, Metabolic Activation: RAT LIVER S-9, PHENOBARBITAL AND BETA-NAPHTHOFLAVONE, Method: PREINCUBATION) “inactive; negative”; (Test System: AMES SALMONELLA TYPHIMURIUM, Strain/Indicator: TA100, Metabolic Activation: RAT, LIVER, S-9, AROCLOR 1254, Method: FLUCTUATION TEST) “active; positive”; under setting [2], “inactive; negative”. Moreover, the mutagenic call runs as follows: (Test System: AMES SALMONELLA TYPHIMURIUM, Strain/Indicator: TA1535, Metabolic Activation: RAT LIVER S-9, PHENOBARBITAL AND BETA-NAPHTHOFLAVONE, Method: PREINCUBATION) “inactive; negative”; (Test System: AMES SALMONELLA TYPHIMURIUM, Strain/Indicator: TA1537, Metabolic Activation: NONE, Method: PREINCUBATION) “inactive; negative”; (Test System: AMES SALMONELLA TYPHIMURIUM, Strain/Indicator: TA1537, Metabolic Activation: RAT LIVER S-9, PHENOBARBITAL AND BETA-NAPHTHOFLAVONE, Method: PREINCUBATION) “inactive; negative”; (Test System: E.COLI, Strain/Indicator: WP2UVRA, Metabolic Activation: NONE, Method: PREINCUBATION) “inactive; negative”; (Test System: E.COLI, Strain/Indicator: WP2UVRA, Metabolic Activation: RAT LIVER S-9, PHENOBARBITAL AND BETA-NAPHTHOFLAVONE, Method: PREINCUBATION) “inactive; negative”.

Consider `CCCCCc1cc(O)cc(O)c1`, for which the mutagenic call runs as follows: (Test System: AMES SALMONELLA TYPHIMURIUM, Strain/Indicator: TA97, Metabolic Activation: HAMSTER, LIVER, S-9, AROCLOR 1254 (10 OR 30%), Method: PREINCUBATION) “inactive; negative”; (Test System: AMES SALMONELLA TYPHIMURIUM, Strain/Indicator: TA97, Metabolic Activation: NONE, Method: PREINCUBATION) “inactive; negative”; (Test System: AMES SALMONELLA TYPHIMURIUM, Strain/Indicator: TA97, Metabolic Activation: RAT, LIVER, S-9, AROCLOR 1254 (10 OR 30%), Method: PREINCUBATION) “inactive; negative”; (Test System: AMES SALMONELLA TYPHIMURIUM, Strain/Indicator: TA98, Metabolic Activation: HAMSTER, LIVER, S-9, AROCLOR 1254 (10%), Method: PREINCUBATION) “inactive; negative”; (Test System: AMES SALMONELLA TYPHIMURIUM, Strain/Indicator: TA98, Metabolic Activation: HAMSTER, LIVER, S-9, AROCLOR 1254 (30%), Method: PREINCUBATION) “inactive; negative”; under setting [3], “inactive; negative”. The mutagenic call runs as follows: (Test System: AMES SALMONELLA TYPHIMURIUM, Strain/Indicator: TA98, Metabolic Activation: RAT, LIVER, S-9, AROCLOR 1254 (10%), Method: PREINCUBATION) “inactive; negative”; (Test System: AMES SALMONELLA TYPHIMURIUM, Strain/Indicator: TA98, Metabolic Activation: RAT, LIVER, S-9, AROCLOR 1254 (30%), Method: PREINCUBATION) “inactive; negative”; (Test System: AMES SALMONELLA TYPHIMURIUM, Strain/Indicator: TA100, Metabolic Activation: HAMSTER, LIVER, S-9, AROCLOR 1254 (10%), Method: PREINCUBATION) “inactive; negative”; (Test System: AMES SALMONELLA TYPHIMURIUM, Strain/Indicator: TA100, Metabolic Activation: HAMSTER, LIVER, S-9, AROCLOR 1254 (30%), Method: PREINCUBATION) “inactive; negative”; under setting [1], “inactive; negative”; (Test System: AMES SALMONELLA TYPHIMURIUM, Strain/Indicator: TA100, Metabolic Activation: RAT, LIVER, S-9, AROCLOR 1254 (10%), Method: PREINCUBATION) “inactive; negative”. For the same compound, the mutagenic call runs as follows: (Test System: AMES SALMONELLA TYPHIMURIUM, Strain/Indicator: TA100, Metabolic Activation: RAT, LIVER, S-9, AROCLOR 1254 (30%), Method: PREINCUBATION) “inactive; negative”; (Test System: AMES SALMONELLA TYPHIMURIUM, Strain/Indicator: TA1535, Metabolic Activation: HAMSTER, LIVER, S-9, AROCLOR 1254 (10 OR 30%), Method: PREINCUBATION) “inactive; negative”; under setting [2], “inactive; negative”; (Test System: AMES SALMONELLA TYPHIMURIUM, Strain/Indicator: TA1535, Metabolic Activation: RAT, LIVER, S-9, AROCLOR 1254 (10 OR 30%), Method: PREINCUBATION) “inactive; negative”.

On to `[N-]=[N+]=NC[C@H](CO)Cc1ccccc1`, for which the mutagenic call (Test System: AMES SALMONELLA TYPHIMURIUM, Strain/Indicator: TA100, Metabolic Activation: RAT, LIVER, S-9, PCB, Method: PREINCUBATION) is “active; positive”.

For `Cc1cc2c(C)c3ccccc3nc2c2ccccc12`, the mutagenic call is, setting by setting: (Test System: AMES SALMONELLA TYPHIMURIUM, Strain/Indicator: TA97A, Metabolic Activation: NONE, Method: PREINCUBATION) “active; positive”; under setting [3], “inactive; negative”; under setting [1], “active; positive”; (Test System: AMES SALMONELLA TYPHIMURIUM, Strain/Indicator: TA102, Metabolic Activation: NONE, Method: PREINCUBATION) “active; positive”.

As for `CCCCCC[C@H]1C(=O)O[C@H](C)[C@H](NC(=O)c2cccc(NC=O)c2O)C(=O)O[C@@H](C)[C@@H]1OC(=O)CC(C)C`, the mutagenic call reads like this: (End Point: In vitro chromosomal aberrations, Test System: Chinese hamster lung (CHL/IU) cells, Metabolic Activation: None) “inactive; negative”; (End Point: In vitro chromosomal aberrations, Test System: Chinese hamster lung (CHL/IU) cells, Metabolic Activation: Rat, Liver, S-9, Phenobarbital and 5,6-benzoflavone (16.7%)) “active; positive (structural aberrations)”; (End Point: In vitro chromosomal aberrations, Test System: Chinese hamster ovary (CHO-WBL) cells, Metabolic Activation: Rat, Liver, S-9, Phenobarbital and 5,6-benzoflavone (5%)) “active; positive (structural changes and polyploidy)”; (End Point: In vitro chromosomal aberrations, Test System: Chinese hamster ovary (CHO-WBL) cells, Metabolic Activation: Rat, Liver, S-9, Phenobarbital and 5,6-benzoflavone (16.7%)) “active; positive (polyploidy)”; (Test System: MOUSE LYMPHOMA, Strain/Indicator: L5178Y (TK+/TK-), Metabolic Activation: NONE, Method: SUSPENSION/PLATE) “inactive; negative”.

In the case of `COCCOCCOP1(OCCOCCOC)=NP(OCCOCCOC)(OCCOCCOC)=NP(OCCOCCOC)(OCCOCCOC)=N1`, the mutagenic call runs as follows: (Test System: AMES SALMONELLA TYPHIMURIUM, Strain/Indicator: TA98, Metabolic Activation: NONE, Method: STANDARD PLATE) “inactive; negative”; (Test System: AMES SALMONELLA TYPHIMURIUM, Strain/Indicator: TA98, Metabolic Activation: RAT, LIVER, S-9, AROCLOR 1254, Method: STANDARD PLATE) “inactive; negative”; (Test System: AMES SALMONELLA TYPHIMURIUM, Strain/Indicator: TA100, Metabolic Activation: NONE, Method: STANDARD PLATE) “inactive; negative”; (Test System: AMES SALMONELLA TYPHIMURIUM, Strain/Indicator: TA100, Metabolic Activation: RAT, LIVER, S-9, AROCLOR 1254, Method: STANDARD PLATE) “inactive; negative”.
